Test results as given in PMC12113707, “Microwave Assisted Synthesis of Antioxidant Dihydro-Pyrazole Hybrids as Possible Lipoxygenase Inhibitors” (Molecules, 2025).

Legend:
[1] = Experimental lipophilicity RM by reverse phase thin layer chromatography (RP-TLC); assay type: physicochemical; details: methanol-water mobile phase
Experimental: Lipophilicity is a main physicochemical parameter for bioactive molecules, linking solubility, ligand-target binding interactions, membrane permeability absorption, distribution, bioavailability, metabolism, elimination and toxicological effects (ADMET), playing an important role in biological activity. The experimental values of lipophilicity RM were determined by reverse phase thin layer chromatography. For the experimental determination of lipophilicity the hydrophilic-lipid phase system is a mixture of methanol- water (90/10%). The theoretical lipophilicity values are determined by the Bioloom program (http://biobyte.com/bb/prod/bioloom.html, accessed on 8 April 2024) (Table 1). According to the calculated clog P values, the most lipophilic compounds are 3c, 3d and 3f while the less lipophilic ones are compounds 5a and 5b.
Melting points were determined on a MEL-Temp II (Lab. Devices, Holliston, MA, USA). In vitro tests were carried out using a UV-Vis spectra and recorded on a Perkin-Elmer 554 double-beam spectrophotometer (Perkin-Elmer Corporation Ltd., Lane Beaconsfield, Bucks, UK). Infrared spectra (KBr pellets) were recorded with Perkin-Elmer 597 spectrophotometer (Perkin-Elmer Corporation Ltd., Lane Beaconsfield, Bucks, UK). The ^1H […] Magnetic Resonance (^1H-NMR) spectra were acquired on an Agilent 500/54 (DD2) at 500 MHz in CDCl3 using tetramethylsilane as an internal standard. Agilent 500/54 (DD2) ^13C NMR spectra were acquired at 125 MHz in CDCl3 solutions with tetramethylsilane serving as an internal reference. Coupling constants J are expressed in Hz, and chemical shifts are reported in ppm. Thermo Fisher Scientific Inc., Waltham, MA, USA, used MeOH as the solvent to calculate mass spectra using an LC-PDA-MS Thermo Finnigan system (LC Pump Plus, Autosampler, Surveyor PDA Plus Detector) interfaced with an ESI MSQ Plus (Thermo Finnigan). Thin-layer chromatography using 5554 F254 Silica gel/TLC cards (Merck and Fluka Chemie GmbH Buchs, Steinheim, Switzerland) was used to monitor the reaction progress. Silica gel 60 F254 plates with a diameter of 2 mm were utilized for preparative thin layer chromatography (prep TLC) by Merck KgaA (ICH078057). Merck (20 × 20 cm) plates were used for the experimental assessment of the lipophilicity using reverse phase thin-layer chromatography (RP-TLC) TLC-Silica gel 60 F254 DC Kieselgel.
In this experiment, TLC silica gel 60 F254 1.05715.0001 commercial glass plates from Merck were used. The plates were first immersed in a 5% v/v solution of liquid paraffin in petroleum ether and left for 90 s to become completely impregnated with the stable lipophilic phase. They were then activated by standing for 30 min in an oven at 40 °C and kept there until the time of use. A 70% v/v MeOH/H2O mixture was used as the mobile phase. The mobile phase was saturated with a few drops of liquid paraffin before being used. The spots of the compounds were placed on the plate at a distance of 2 cm from the edges of the plate and also from each other. The development of the spots on the plates was carried out in closed chromatography chambers where the atmosphere is saturated with the mobile phase at room temperature. At the end of development, the solvent-formed front was marked and the plates are dried at 80 °C for about 20–30 min. The appearance of the spots was made under an ultraviolet light lamp. The Rf values were the average of 5–6 measurements for each compound and assuming that the compounds will have been rotated to different positions on the plates. The RM values were calculated from the corresponding Rf values according to the equation [67].RM = log [(1/Rf) − 1](1)

[2] = Interaction with the stable free radical DPPH (reducing activity); details: 517 nm
Experimental: In general, the compounds present moderate to good antioxidant activity. It seems that the dibenzylacetones present satisfactory antioxidant activity compared to the hybrids at 60 min (1b, 1d and 1f).
The tested compounds (0.1 mM final concentration) dissolved in DMSO were incubated with a solution of DPPH in absolute ethanol in absence of light. The absorbance at 20 and 60 min at 517 nm was recorded at room temperature. NDGA was used as the reference compound.

[3] = Inhibition of AAPH-induced linoleic acid peroxidation; details: 37 °C, 234 nm
Experimental: The ability of the compounds to inhibit AAPH-induced peroxidation of linoleic acid is another assay to investigate the antioxidant properties of the compounds. Azo compounds such as 2,2′-azobis dihydrochloride (2-amidinopropane) (AAPH) are capable of generating free radicals through spontaneous decomposition at 37 °C. The R- radicals react immediately with air-oxygen to produce peroxy radicals. AAPH was therefore used as the radical initiator and sodium linoleate as substrate subjected to peroxidation. Measurements were carried out at 234 nm using a UV/V is spectrophotometer. Dichalcone 1i substituted with two phenyl groups presents the lowest lipophilicity. […] Therefore, hydrophilic substituents offer an increase in activity.
The interaction of free radicals with cell membrane lipids induces free radical chain reactions, a process called lipid peroxidation. 930 μL of a phosphate buffer solution (0.05 M, pH = 7.4), 10 μL of the sodium linolate solution (16 mM in a buffer solution of Tris-HCl pH = 9) and 10 μL of the tested compounds (stock solutions 100 μΜ) were mixed and the oxidative procedure started after the addition of 50 μL AAPH at 37 °C under air conditions. The conjugated diene’s absorbance was measured at 234 nm at a thermostable spectrophotometer (37 °C) according to previous publication.

[4] = target: T1, soybean lipoxygenase (SLOX-1) (Glycine max, UniProt P08170); assay: Inhibition of soybean lipoxygenase in vitro; assay type: biochemical; details: pH 9, sodium linoleate substrate; for IC50: read-out: LOX IC50 (μM) (±SD); for inhibition at 100 µM: read-out: LOX% Inhibition, 100 μM (±SD)
T1 construct: 200 μL of plant-derived lipoxygenase solution (1:9 × 10^−4 w/v, in saline); purchased Sigma Chemical, Co; host or cells: soybean (plant-derived)
T1 sequence (P08170 1-839): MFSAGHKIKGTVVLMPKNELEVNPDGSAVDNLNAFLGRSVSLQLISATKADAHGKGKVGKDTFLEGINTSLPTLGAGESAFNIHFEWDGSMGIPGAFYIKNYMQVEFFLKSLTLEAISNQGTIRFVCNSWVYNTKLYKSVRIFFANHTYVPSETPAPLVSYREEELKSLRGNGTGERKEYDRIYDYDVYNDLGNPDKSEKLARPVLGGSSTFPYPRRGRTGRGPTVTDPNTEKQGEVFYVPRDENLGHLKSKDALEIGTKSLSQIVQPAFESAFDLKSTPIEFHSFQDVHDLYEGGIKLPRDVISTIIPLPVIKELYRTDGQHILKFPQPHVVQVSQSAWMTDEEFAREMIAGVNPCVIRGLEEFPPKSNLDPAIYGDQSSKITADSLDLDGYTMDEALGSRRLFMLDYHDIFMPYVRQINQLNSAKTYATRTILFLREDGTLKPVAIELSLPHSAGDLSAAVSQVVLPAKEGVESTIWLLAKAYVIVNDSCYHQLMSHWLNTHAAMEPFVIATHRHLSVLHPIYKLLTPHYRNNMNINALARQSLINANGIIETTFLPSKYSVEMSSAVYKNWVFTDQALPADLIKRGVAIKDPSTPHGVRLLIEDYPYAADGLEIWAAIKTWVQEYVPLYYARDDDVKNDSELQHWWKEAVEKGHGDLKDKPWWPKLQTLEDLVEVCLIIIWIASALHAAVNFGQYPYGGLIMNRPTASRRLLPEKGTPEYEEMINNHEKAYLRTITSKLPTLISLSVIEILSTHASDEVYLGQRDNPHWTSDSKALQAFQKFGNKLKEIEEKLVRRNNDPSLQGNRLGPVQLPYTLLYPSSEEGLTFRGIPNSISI
Experimental: Soybean lipoxygenase SLOX-1 at pH 9 is used in vitro. During this assay linoleic acid sodium salt is converted to the corresponding 13-hydroperoxide. The reaction is recorded photometrically at 234 nm using the UV-based enzyme assay. […] It is known that soybean LOX inhibitory activity induced by NSAIDs is qualitatively quite similar to the inhibition observed on the rat mast cells LOX and this assay may be used as a qualitative or semi-quantitative screen for such activity.
To a quartz cell, add 790 μL of Tris-HCl pH = 9.0 buffer, 200 μL of plant-derived lipoxygenase solution (1:9 × 10^−4 w/v, in saline), 10 μL of the test compound solution and 100 μL of sodium linoleate solution (3 mM concentration). The absorbance was measured at 234 nm, where the change in absorbance due to the conversion of linoleic acid to […] was recorded. A solution of 790 μL of Tris-HCl pH = 9.0 buffer, 200 μL of a plant-derived lipoxygenase solution (1:9 × 10^−4 w/v, in saline), 10 μL of DMSO and 100 μL of sodium linoleate solution (3 mM concentration) was used as a control.

Row | SMILES | RM ± SD [1] | RA%, 100 μM, 20 min (±SD) [2] | RA%, 100 μM, 60 min (±SD) [2] | AAPH% Inhibition, 100 μM (±SD) [3] | IC50 [4] | inhibition at 100 µM [4]
1 | Brc1ccc(/C=C/C2=NN(c3ccc(Br)cc3)C(c3ccc(Br)cc3)C2)cc1 (stereo not drawn) [Compound 3c] | 1.46 ± 0.049 | 2 ± 0.1% | 24 ± 0.9% | 40 ± 1.8% | 30 µM | –
2 | Clc1ccc(/C=C/C2=NN(c3ccc(Br)cc3)C(c3ccc(Cl)cc3)C2)cc1 (stereo not drawn) [Compound 3d, (E)-1-(4-bromo-phenyl)-5-(4-chloro-phenyl)-3-(4-chlorostyryl)-4,5-dihydro-1H-pyrazole] | 1.39 ± 0.069 | 6 ± 0.5% | – | 52 ± 2.5% | – | 11 ± 0.8%
3 | CN(C)c1ccc(/C=C/C2=NN(c3ccc(Br)cc3)C(c3ccc(N(C)C)cc3)C2)cc1 (stereo not drawn) [Compound 3e] | 1.25 ± 0.086 | 30 ± 0.9% | 53 ± 0.9% | 80 ± 2.9% | 20 µM | –
4 | FC(F)(F)c1ccc(/C=C/C2=NN(c3ccc(Br)cc3)C(c3ccc(C(F)(F)F)cc3)C2)cc1 (stereo not drawn) [Compound 3f] | 1.47 ± 0.044 | 5 ± 0.4% | 14 ± 1.2% | 75 ± 2.7% | – | 38 ± 2.6%
5 | N#Cc1ccc(N2N=C(/C=C/c3ccc(Br)cc3)CC2c2ccc(Br)cc2)cc1 (stereo not drawn) [Compound 4c, (E)-4-(5-(4-bromophenyl)-3-(4-bromostyryl)-4,5-dihydro-1H-pyrazol-1-yl)-benzonitrile] | 0.94 ± 0.069 | 2 ± 0.1% | – | 59 ± 0.2% | – | 17 ± 1.2%
6 | N#Cc1ccc(N2N=C(/C=C/c3ccc(Cl)cc3)CC2c2ccc(Cl)cc2)cc1 (stereo not drawn) [Compound 4d, (E)-4-(5-(4-chlorophenyl)-3-(4-chlorostyryl)-4,5-dihydro-1H-pyrazol-1-yl)-benzonitrile] | 0.85 ± 0.068 | 23 ± 0.3% | 2 ± 0.1% | 51 ± 0.2% | 85 µM | –
7 | CN(C)c1ccc(/C=C/C2=NN(c3ccc(C#N)cc3)C(c3ccc(N(C)C)cc3)C2)cc1 (stereo not drawn) [Compound 4e, (E)-4-(5-(4-(dimethylamino)phenyl)-3-(4-(dimethylamino)styryl)-4,5-dihydro-1H-pyrazo-1yl)-benzonitrile] | 0.49 ± 0.029 | 2 ± 0.1% | 2 ± 0.2% | 74 ± 0.9% | – | 6 ± 0.5%
8 | NC(=O)N1N=C(/C=C/c2ccc(F)cc2)CC1c1ccc(F)cc1 (stereo not drawn) [Compound 5b, (E)-5-(4-fluorophenyl)-3-(4-fluorostyryl)-4,5-dihydro-1H-pyrazole-1-carboxamide] | 0.06 ± 0.004 | 19 ± 0.1% | – | 8 ± 0.2% | – | 39 ± 0.7%
9 | NC(=O)N1N=C(/C=C/c2ccc(Cl)cc2)CC1c1ccc(Cl)cc1 (stereo not drawn) [Compound 5d, (E)-5-(4-chlorophenyl)-3-(4-chlorostyryl)-4,5-dihydro-1H-pyrazole-1-carboxamide] | 0.50 ± 0.043 | – | 34 ± 0.5% | 33 ± 0.5% | 80 µM | –
10 | CN(C)c1ccc(/C=C/C2=NN(C(N)=O)C(c3ccc(N(C)C)cc3)C2)cc1 (stereo not drawn) [Compound 5e, (E)-5-(4-dimethylaminophenyl)-3-(4-dimethylaminostyryl)-4,5-dihydro-1H-pyrazole-1-carboxamide] | 0.28 ± 0.019 | 20 ± 0.1% | – | 61 ± 0.9% | – | 19 ± 0.4%
